{"source": "paper PMC5988656", "about": "“Phase I studies of AZD1208, a proviral integration Moloney virus kinase inhibitor in solid and haematological cancers” (British Journal of Cancer, 2018)", "assay_type_in_all_cases": "in vivo, human", "key": {"CYP3A4": {"test_system": "CYP3A4", "test": "CYP3A4 activity assessed by 4-β-hydroxycholesterol levels, solid tumour study", "settings": "for 4-β-hydroxycholesterol Day 15 concentration / 4-β-hydroxycholesterol ratio (Day 15/Day 1): individual subjects", "protocol": "In the solid tumour study, blood samples for 4β-hydroxycholesterol analysis were collected pre-dose at Cycle 0, Day 1; Cycle 1 (Day 8 and 15); and Cycle 2, Day 15.\nThe activity of CYP3A4 was assessed by analysing 4-β-hydroxycholesterol levels in samples collected from five patients at AZD1208 doses of 700 or 800 mg."}, "pBAD S112": {"test_system": "pBAD S112", "test": "PD: phosphorylated BAD at S112 by MesoScale Discovery ELISA, AML study", "protocol": "For AZD1208 PD evaluations, bone marrow aspirates were collected (pretreatment and Cycle 1, Day 1, 2–6 h following administration of AZD1208) and peripheral blood samples were collected (pretreatment on Cycle 1, Day 1; and on-treatment at Cycle 1, Day 1 at 3, 6 and 24 h post-dose; Cycle 1, Day 14 at pre-dose, 3 and 6 h post-dose). Mononuclear cells were isolated, and protein lysates prepared, for subsequent analysis of phosphorylated BAD at S112 by MesoScale Discovery ELISA and phosphorylation of 4E-BP1 at S65 by NanoPro immunoassay [unpublished data: McEachern et al. 2018, manuscript in preparation]. Samples were considered evaluable when the baseline biomarker levels were above the background signal (as defined by buffer-only negative control samples) and within the linear range of assay. Additionally, only blood samples containing detectable blasts were considered for analysis."}, "[1]": {"test": "AML dose-escalation study: pharmacokinetics (plasma, urine)", "protocol": "The schedules for collection of blood and urine samples for PK analyses in each cohort in both studies are described in Supplementary Table 1. When necessary for clinical response assessment in the AML study, a bone marrow sample for PK analysis was collected at Cycle 1, Day 28.\nThe concentration of AZD1208 in plasma and urine was determined by Covance, on behalf of Clinical Bioanalysis Alliance at AstraZeneca R&D, using a bioanalytical method. A volume of 0.05 ml of K2EDTA human plasma sample was extracted by liquid–liquid extraction using 0.7 ml of methyl tert-butyl ether. Approximately 100 µl of the supernatant was transferred, evaporated to dryness and reconstituted with 350 µl of 1:1 methanol:water, and a 5 µl injection was made to the high-performance liquid chromatography (HPLC) column. HPLC separations were performed on a Phenomenex LUNA C18 (50 × 2 mm, 5 µm) column using a mobile phase of 0.1% formic acid in water (A) and 0.1% formic acid in acetonitrile (B) at a flow rate of 0.6 ml/min and a column temperature of 40 °C. AZD1208-D5 was used as the internal standard. Detection was performed in a Sciex API4000 mass spectrometer, in a positive electrospray ionisation mode, using multiple reaction monitoring detection (AZD1208: 380.0–>248.1; AZD1208-D5: 385.0–>253.1)."}}, "note": "Values joined by “and” are separate entries in the source; they are usually repeats but may differ in a detail not shown here. Identical values can stand only once.", "data": [{"smiles": "N[C@@H]1CCCN(c2c(/C=C3\\SC(=O)NC3=O)cccc2-c2ccccc2)C1", "note": "[AZD1208]", "values": [{"measurement": "Increase in 4-β-hydroxycholesterol levels on Day 15 compared with Day 1", "setting": "CYP3A4; five patients, 700 or 800 mg", "result": "~ 4 fold"}, {"measurement": "4-β-hydroxycholesterol Day 15 concentration, Gmean (CV%)", "setting": "CYP3A4; five subjects, 700 or 800 mg", "result": "114.1 (29.2) ng ml"}, {"measurement": "4-β-hydroxycholesterol ratio (Day 15/Day 1), Gmean (CV%)", "setting": "CYP3A4; five subjects, 700 or 800 mg", "result": "4.38 (23.9)"}, {"measurement": "4-β-hydroxycholesterol Day 15 concentration", "setting": "CYP3A4; dose 700 mg", "result": "85.5 ng·mL and 91.9 ng·mL and 175 ng·mL"}, {"measurement": "4-β-hydroxycholesterol ratio (Day 15/Day 1)", "setting": "CYP3A4; dose 700 mg", "result": "3.41 and 5.93 and 4.90"}, {"measurement": "4-β-hydroxycholesterol Day 15 concentration", "setting": "CYP3A4; dose 800 mg", "result": "128 ng·mL and 110 ng·mL"}, {"measurement": "4-β-hydroxycholesterol ratio (Day 15/Day 1)", "setting": "CYP3A4; dose 800 mg", "result": "4.67 and 3.49"}, {"measurement": "CYP3A4 activity", "setting": "CYP3A4; multiple dosing, 700 or 800 mg", "result": "induced"}, {"measurement": "Patients with reductions in pBAD S112", "setting": "pBAD S112; evaluable bone marrow samples, single dose", "result": "7/17"}, {"measurement": "Patients with ≥50% reduction from baseline of pBAD S112", "setting": "pBAD S112; peripheral blood, all dose levels", "result": "9/10"}, {"measurement": "Percentage of patients with a lower accumulation ratio", "setting": "[1]; 240 mg", "result": 0, "unit": "%"}, {"measurement": "Percentage of patients with a lower accumulation ratio", "setting": "[1]; 900 mg", "result": 67, "unit": "%"}, {"measurement": "Patients with significantly lower exposure at steady state compared with the first dose", "setting": "[1]; 120–900 mg doses, 4/16 patients", "result": 25, "unit": "%"}, {"measurement": "Dose proportionality of Cmax and AUC0–24", "setting": "[1]; Cycle 1, Day 1", "result": "dose proportional"}, {"measurement": "Tmax, median", "setting": "[1]; Cycle 1, Day 1, 120 mg, n=3", "result": 2.42, "unit": "h"}, {"measurement": "Tmax, median", "setting": "[1]; Cycle 1, Day 1, 240 mg, n=6", "result": 2.20, "unit": "h"}, {"measurement": "Tmax, median", "setting": "[1]; Cycle 1, Day 1, 480 mg, n=6", "result": 3.17, "unit": "h"}, {"measurement": "Tmax, median", "setting": "[1]; Cycle 1, Day 1, 700 mg, n=7", "result": 3.05, "unit": "h"}, {"measurement": "Tmax, median", "setting": "[1]; Cycle 1, Day 1, 900 mg, n=9", "result": 3.20, "unit": "h"}, {"measurement": "Gmean plasma concentration of AZD1208 (± SD)", "setting": "[1]; Cycle 1, Day 1, 0.5 h post-dose, 120 mg, n=3", "result": "85.8 (40.1, 183.9) ng ml"}, {"measurement": "Gmean plasma concentration of AZD1208 (± SD)", "setting": "[1]; Cycle 1, Day 1, 0.5 h post-dose, 240 mg, n=6", "result": "158.3 (14.4, 1740.3) ng ml"}, {"measurement": "Gmean plasma concentration of AZD1208 (± SD)", "setting": "[1]; Cycle 1, Day 1, 0.5 h post-dose, 480 mg, n=6", "result": "124.3 (67.6, 228.6) ng ml"}, {"measurement": "Gmean plasma concentration of AZD1208 (± SD)", "setting": "[1]; Cycle 1, Day 1, 0.5 h post-dose, 700 mg, n=7", "result": "386.8 (93.3, 1603.6) ng ml"}, {"measurement": "Gmean plasma concentration of AZD1208 (± SD)", "setting": "[1]; Cycle 1, Day 1, 0.5 h post-dose, 900 mg, n=9", "result": "251.5 (90.7, 697.2) ng ml"}, {"measurement": "Gmean plasma concentration of AZD1208 (± SD)", "setting": "[1]; Cycle 1, Day 1, 1 h post-dose, 120 mg, n=3", "result": "321.3 (187.8, 549.9) ng ml"}, {"measurement": "Gmean plasma concentration of AZD1208 (± SD)", "setting": "[1]; Cycle 1, Day 1, 1 h post-dose, 240 mg, n=6", "result": "540.4 (133.8, 2182.4) ng ml"}, {"measurement": "Gmean plasma concentration of AZD1208 (± SD)", "setting": "[1]; Cycle 1, Day 1, 1 h post-dose, 480 mg, n=6", "result": "573.0 (248.3, 1322.0) ng ml"}, {"measurement": "Gmean plasma concentration of AZD1208 (± SD)", "setting": "[1]; Cycle 1, Day 1, 1 h post-dose, 700 mg, n=7", "result": "883.8 (351.6, 2221.7) ng ml"}, {"measurement": "Gmean plasma concentration of AZD1208 (± SD)", "setting": "[1]; Cycle 1, Day 1, 1 h post-dose, 900 mg, n=9", "result": "921.4 (373.1, 2275.6) ng ml"}, {"measurement": "Gmean plasma concentration of AZD1208 (± SD)", "setting": "[1]; Cycle 1, Day 1, 1.5 h post-dose, 120 mg, n=3", "result": "774.5 (422.1, 1421.3) ng ml"}, {"measurement": "Gmean plasma concentration of AZD1208 (± SD)", "setting": "[1]; Cycle 1, Day 1, 1.5 h post-dose, 240 mg, n=6", "result": "1098.6 (620.9, 1943.7) ng ml"}, {"measurement": "Gmean plasma concentration of AZD1208 (± SD)", "setting": "[1]; Cycle 1, Day 1, 1.5 h post-dose, 480 mg, n=6", "result": "1243.2 (485.9, 3181.1) ng ml"}, {"measurement": "Gmean plasma concentration of AZD1208 (± SD)", "setting": "[1]; Cycle 1, Day 1, 1.5 h post-dose, 700 mg, n=7", "result": "1849.6 (783.5, 4366.4) ng ml"}, {"measurement": "Gmean plasma concentration of AZD1208 (± SD)", "setting": "[1]; Cycle 1, Day 1, 1.5 h post-dose, 900 mg, n=9", "result": "2106.0 (860.5, 5154.2) ng ml"}, {"measurement": "Gmean plasma concentration of AZD1208 (± SD)", "setting": "[1]; Cycle 1, Day 1, 2 h post-dose, 120 mg, n=3", "result": "779.9 (508.9, 1195.3) ng ml"}, {"measurement": "Gmean plasma concentration of AZD1208 (± SD)", "setting": "[1]; Cycle 1, Day 1, 2 h post-dose, 240 mg, n=6", "result": "1388.6 (1074.3, 1744.9) ng ml"}, {"measurement": "Gmean plasma concentration of AZD1208 (± SD)", "setting": "[1]; Cycle 1, Day 1, 2 h post-dose, 480 mg, n=6", "result": "1852.3 (781.9, 4387.6) ng ml"}, {"measurement": "Gmean plasma concentration of AZD1208 (± SD)", "setting": "[1]; Cycle 1, Day 1, 2 h post-dose, 700 mg, n=7", "result": "2640.6 (1438.6, 4847.0) ng ml"}, {"measurement": "Gmean plasma concentration of AZD1208 (± SD)", "setting": "[1]; Cycle 1, Day 1, 2 h post-dose, 900 mg, n=9", "result": "3553.2 (2352.6, 5366.6) ng ml"}, {"measurement": "Gmean plasma concentration of AZD1208 (± SD)", "setting": "[1]; Cycle 1, Day 1, 3 h post-dose, 120 mg, n=3", "result": "715.6 (415.5, 1232.6) ng ml"}, {"measurement": "Gmean plasma concentration of AZD1208 (± SD)", "setting": "[1]; Cycle 1, Day 1, 3 h post-dose, 240 mg, n=6", "result": "1299.5 (967.1, 1746.2) ng ml"}, {"measurement": "Gmean plasma concentration of AZD1208 (± SD)", "setting": "[1]; Cycle 1, Day 1, 3 h post-dose, 480 mg, n=6", "result": "2865.4 (1884.8, 4356.2) ng ml"}, {"measurement": "Gmean plasma concentration of AZD1208 (± SD)", "setting": "[1]; Cycle 1, Day 1, 3 h post-dose, 700 mg, n=7", "result": "3112.3 (1814.6, 5337.9) ng ml"}, {"measurement": "Gmean plasma concentration of AZD1208 (± SD)", "setting": "[1]; Cycle 1, Day 1, 3 h post-dose, 900 mg, n=9", "result": "3574.9 (1521.4, 8400.4) ng ml"}, {"measurement": "Gmean plasma concentration of AZD1208 (± SD)", "setting": "[1]; Cycle 1, Day 1, 6 h post-dose, 120 mg, n=3", "result": "546.6 (356.7, 837.6) ng ml"}, {"measurement": "Gmean plasma concentration of AZD1208 (± SD)", "setting": "[1]; Cycle 1, Day 1, 6 h post-dose, 240 mg, n=6", "result": "1004.2 (822.5, 1226.0) ng ml"}, {"measurement": "Gmean plasma concentration of AZD1208 (± SD)", "setting": "[1]; Cycle 1, Day 1, 6 h post-dose, 480 mg, n=6", "result": "2642.0 (1774.2, 3934.4) ng ml"}, {"measurement": "Gmean plasma concentration of AZD1208 (± SD)", "setting": "[1]; Cycle 1, Day 1, 6 h post-dose, 700 mg, n=7", "result": "2846.5 (2115.2, 3830.6) ng ml"}, {"measurement": "Gmean plasma concentration of AZD1208 (± SD)", "setting": "[1]; Cycle 1, Day 1, 6 h post-dose, 900 mg, n=9", "result": "4252.0 (2883.8, 6269.4) ng ml"}, {"measurement": "Gmean plasma concentration of AZD1208 (± SD)", "setting": "[1]; Cycle 1, Day 1, 8 h post-dose, 120 mg, n=3", "result": "481.6 (308.4, 752.3) ng ml"}, {"measurement": "Gmean plasma concentration of AZD1208 (± SD)", "setting": "[1]; Cycle 1, Day 1, 8 h post-dose, 240 mg, n=6", "result": "950.3 (825.3, 1094.2) ng ml"}, {"measurement": "Gmean plasma concentration of AZD1208 (± SD)", "setting": "[1]; Cycle 1, Day 1, 8 h post-dose, 480 mg, n=6", "result": "2249.0 (1520.2, 3327.1) ng ml"}, {"measurement": "Gmean plasma concentration of AZD1208 (± SD)", "setting": "[1]; Cycle 1, Day 1, 8 h post-dose, 700 mg, n=7", "result": "3284.7 (2253.3, 4788.2) ng ml"}, {"measurement": "Gmean plasma concentration of AZD1208 (± SD)", "setting": "[1]; Cycle 1, Day 1, 8 h post-dose, 900 mg, n=9", "result": "3882.9 (2438.1, 6184.0) ng ml"}]}]}
